# Experimental data taken from patent publication US4963570A, “1-(acetylaminophenyl)-2-aminopropanone derivatives and pharmaceutical compositions thereof” (Laboratoire L. Lafon, priority 1983, dated 1990).
# Counter-ions that a name gives are not always drawn.
# Experiments:
# dogs = assay: cardiovascular action in anesthetized dogs; type: in vivo, dog
# Method: Four dogs (average weight: 13.8 kg), anesthetized with nembutal, receive CRL 41 220 by intraduodenal administration at successive doses of 0.1 mg/kg, 0.5 mg/kg, 1 mg/kg, 2.5 mg/kg, 5 mg/kg and 10 mg/kg. The blood pressure, the heart beat, the flow rate through the femoral artery, the flow rate through the vertebral artery and the rectal and/or skin temperature are measured and the coloration of the skin and the bile (collected by catheterization of the bile duct after ligature of the cystic duct) is observed.
# CNS = assay: overall neuropsychopharmacological (CNS) profile; type: in vivo, mouse; rat; conditions: i.p., mice and rats; dose not stated
# Method: The neuropsychopharmacological study of CRL 41 219 was carried out as indicated above for CRL 41 224.
# The neuropsychopharmacological study of CRL 41 220 was carried out in accordance with the procedures given above for CRL 41 224.
# man = assay: clinical trials; type: in vivo, human; conditions: man, oral, 250 to 500 mg
# LEWIS' carcinoma = LEWIS' carcinoma in mice; type: in vivo, mouse
# Method: a. animals: consanguineous female mice (C57 BL6), b. infecting cells: 10^5 cells injected subcutaneously into the back of the animals, c. monitoring of the tumor growth by measurement of the tumor twice a week, d. evaluation of the pulmonary metastases after fixation of the lungs of the dead animals in BOUIN's fixative.
# Using the same procedures, the association of CRL 41 220 with 150 mg/kg of cyclophosphamide gives the results collated in Table II below.
# [1] = acute toxicity, intraperitoneal (lethal doses); type: in vivo, mouse; conditions: mouse, in vivo, ip; male mice
# Method: (§1) By intraperitoneal administration to male mice, the LD-30 (lethal dose for 30% of the animals tested) is of the order of 128 mg/kg and the LD-50 is of the order of about 200 mg/kg.
# male mice = assay: acute toxicity, intraperitoneal (lethal doses); type: in vivo, mouse; conditions: i.p.
# Method: as §1
# immunological properties = assay: immunological properties, overall; type: in vivo; conditions: dose not stated
# Excerpt: The present 1-(acetylaminophenyl)-2-aminopropanone derivatives are useful in therapy. They all act on the CNS, more precisely as antidepressants. They have a stimulant or excitant component in their neuropsychopharmacological profile.
# [2] = test system: delayed hypersensitivity to the red blood corpuscles of sheep; assay: delayed hypersensitivity to the red blood corpuscles of sheep (Miller); type: in vivo; conditions: dose not stated
# [3] = test system: spleen cells expressing a direct IgM antibody response; assay: test for cells forming lysis areas (PFC IgM, Cunningham); type: in vivo, mouse; conditions: dose not stated
# Method: Immunological assays were carried out in order to point out the interest of CRL 41 240 as an immunomodulating agent. Specifically, the test used was the so-called test for cells forming lysis areas, described by A. J. […] et al. ("Further improvements in the plaque technique for detecting simple antibody forming cells"), Immunology 14, pages 599-601 (1968).
# The test for cells forming lysis areas (or PFC IgM) explores the humoral immunity. Four days after immunization with a T-dependent antigen (in this case red blood corpuscles of sheep), the spleen cells expressing a direct IgM antibody response are counted. The mice used for this purpose are conventional female OF1 mice devoid of specific pathogenic organisms, weighing from 20 to 30 g and divided up into a control group of 14 animals and groups each containing 7 animals per dose and per product to be studied, administered orally on the same day as the antigen. An activity index I is calculated for each dose of product according to the following equation: [formula]
# This test is performed at least twice for each dose of test product [C(control amimals), 0.01, 0.1, 10 and 100 mg/kg] and a statistical study is undertaken using the Student t test after variance analysis on the number of lyses per spleen.
# mice [4] = assay: asphyxiant anoxia (gallamine triiodoethylate); type: in vivo, mouse; conditions: i.p.; dose not stated
# Method: Groups of 10 mice receive CRL 41 224 half an hour before the intraperitoneal administration of 32 mg/kg of gallamine triiodoethylate (reference curarizing agent).
# [5] = test system: peripheral α-adrenergic stimulation; assay: signs of peripheral adrenergic stimulation; type: in vivo, mouse; rat; conditions: i.p.; dose not stated
# Method: (§2) Groups of three animals are observed before and then 0.25 hour, 0.50 hour, 1 hour, 2 hours, 3 hours and 24 hours after the administration of CRL 41 224.
# mice [6] = assay: motility reduced by hypoxic aggression; type: in vivo, mouse; conditions: i.p., dose not stated
# Method: Half an hour after they have received CRL 41 224, the mice (10 per dose, 20 control animals) are subjected to acute hypobaric anoxia [pressure reduction of 600 mm Hg (i.e. about 8×10^4 Pa) in 90 seconds; release of vacuum in 45 seconds] and are then placed in an actimeter, where their motility is recorded for 10 minutes.
# mice [7] = assay: interaction with reserpine; type: in vivo, mouse; conditions: i.p.; dose not stated
# Method: Four hours after the intraperitoneal injection of 2.5 mg/kg of reserpine, groups of 6 mice receive CRL 41 224.
# mice [8] = assay: interaction with barbital; type: in vivo, mouse; conditions: i.p.; dose not stated
# Method: Half an hour after the administration of CRL 41 224, groups of 10 mice receive an intraperitoneal injection of barbital (220 mg/kg).
# mice [9] = assay: interaction with oxotremorine; type: in vivo, mouse; conditions: i.p.; dose not stated
# Method: CRL 41 224 is administered to groups of 6 mice 0.5 hour before the intraperitoneal injection of 0.5 mg/kg of oxotremorine.
# mice [10] = assay: interaction with apomorphine in mice; type: in vivo, mouse; conditions: i.p.; dose not stated
# Method: Groups of 6 mice receive CRL 41 224 0.5 hour before the subcutaneous injection of 1 or 16 mg/kg of apomorphine.
# mice [11] = assay: action on the spontaneous motility (actimeter); type: in vivo, mouse; conditions: mice, i.p.; dose not stated
# Method: 0.5 hour after they have received CRL 41 224, the mice (6 per dose, 12 control animals) are placed in an actimeter, where their motility is recorded for 30 minutes.
# rats [12] = assay: overall behavior and reactivities in rats; type: in vivo, rat; conditions: i.p., dose not stated
# Method: as §2
# mice [13] = assay: motility reduced by habituation to the enclosure; type: in vivo, mouse; conditions: i.p., dose not stated
# Method: After they have stayed in the actimeters for 18 hours, the mice (6 per dose, 12 control animals) receive CRL 41 224. They are immediately returned to their respective enclosures and, half an hour later, their motility is recorded for 30 minutes.
# mice [14] = assay: overall behavior and reactivities in mice; type: in vivo, mouse; conditions: mice, i.p.; dose not stated
# Method: as §2
# rats [15] = assay: interaction with amphetamine; type: in vivo, rat; conditions: rats, i.p.; dose not stated
# Method: Amphetamine (2 mg/kg) is injected intraperitoneally into groups of 6 rats 30 minutes after the administration of CRL 41 224.
# mice [16] = assay: four plate test, traction and electric shock; type: in vivo, mouse; conditions: i.p., dose not stated
# Method: The test is performed on groups of 10 mice 30 minutes after the administration of CRL 41 224.
# mice [17] = assay: action on the behavioral despair; type: in vivo, mouse; conditions: i.p., dose not stated
# Excerpt: Half an hour after they have received CRL 41 224, groups of 6 mice are placed in a beaker filled with water to a height of 6 cm. The total period of immobility between the 2nd and 6th minutes following immersion is noted.
# rats [18] = assay: interaction with apomorphine in rats; type: in vivo, rat; conditions: i.p., dose not stated
# Method: CRL 41 224 is administered to groups of 6 rats 0.5 hour before the subcutaneous injection of 0.5 mg/kg of apomorphine.
# [19] = dogs, after accumulated 19.1 mg/kg intraduodenal
# [20] = dogs, after intraduodenal CRL 41 220
# [21] = CRL 41 220 2 mg/kg + cyclophosphamide 150 mg/kg
compound,measurement,setting,value
"CC(=O)Nc1c(Cl)cc(C(=O)C(C)NC(C)C)cc1Cl (stereo not shown) [CRL 41 220, 1-(4-acetylamino-3,5-dichlorophenyl)-2-isopropylaminopropanone hydrochloride]",respiratory stimulation,"dogs; 4 dogs, intraduodenal",induces respiratory stimulation in the 4 dogs
same,diastolic blood pressure before isoprenaline,dogs; [19],112 mm Hg
same,diastolic blood pressure with 10 μg/kg of isoprenaline,dogs; [19],47 mm Hg
same,effect of isoprenaline on the diastolic blood pressure after CRL 41 220,dogs; [19],very slightly modified as regards the diastolic blood pressure
same,effect of isoprenaline on the heart beat after CRL 41 220,dogs; [19],not modified as regards the heart beat
same,heart beat before isoprenaline,dogs; [19],221 beats/minute
same,heart beat with 10 μg/kg of isoprenaline,dogs; [19],275 beats/minute
same,effect of 1 mg/kg of propanolol at the end of the test,dogs; [20],suppresses all the effects of CRL 41 220
same,systolic blood pressure before noradrenaline,dogs; [20],202 mm Hg
same,systolic blood pressure with 2 μg/kg of noradrenaline,dogs; [20],272 mm Hg
same,hypertension induced by noradrenaline,"dogs; dogs, after intraduodenal CRL 41 220, noradrenaline 2 μg/kg",hypertension induced by noradrenaline is reduced
same,overall cardiovascular action,"dogs; dogs, intraduodenal",acts as a hypotensive agent
same,rectal and skin temperatures,"dogs; dogs, intraduodenal",increases the rectal and skin temperatures
same,femoral flow rate,"dogs; dogs, intraduodenal, 1 mg/kg","increases the vertebral flow rate as from a dose of 0.5 mg/kg, the femoral flow rate"
same,heart beat,"dogs; dogs, intraduodenal, 2.5 mg/kg","increases the vertebral flow rate as from a dose of 0.5 mg/kg, the femoral flow rate at a dose of 1 mg/kg and the heart beat"
same,hypotensive effect,"dogs; dogs, intraduodenal, 10 mg/kg",hypotensive effect
same,vertebral flow rate,"dogs; dogs, intraduodenal, as from 0.5 mg/kg",increases the vertebral flow rate
same,overall action on the CNS,CNS,antidepressant and stimulant effects
same,"clinical result: circulatory disorders and insufficient immunoreaction (recurrent herpes, rheumatoid polyarthritis, severe measles)",man,good results
same,animals treated still being alive several weeks after the experiment,LEWIS' carcinoma; [21],all
same,protective action in respect of LEWIS' carcinoma,LEWIS' carcinoma; [21],unquestionable protective
same,differences compared with cyclophosphamide used by itself,LEWIS' carcinoma; CRL 41 220 5 mg/kg + cyclophosphamide 150 mg/kg,substantially few
same,toxicity of the association compared with cyclophosphamide used by itself,LEWIS' carcinoma; CRL 41 220 100 mg/kg + cyclophosphamide 150 mg/kg,increase in the toxicity
same,"activity in LEWIS' carcinoma, used by itself","LEWIS' carcinoma; female C57 BL6 mice, alone",inactive
same,"activity in the study of LEWIS' carcinoma, overall statement",LEWIS' carcinoma; mice,active
same,LD50,[1],~500 mg/kg
same,LD-0 (maximum non-lethal dose),male mice,greater than 128 mg/kg
same,LD-30,male mice,about 250 mg/kg
same,"immunological properties, overall",immunological properties,beneficial immunomodulating effects
same,"immunomodulating activity, delayed hypersensitivity",[2],immunomodulating stimulant capacity
same,"immunomodulating activity, test for cells forming lysis areas",[3],immunomodulating stimulant capacity
"CC(=O)Nc1ccc(C(=O)C(C)N2CCCC2)cc1Cl (stereo not shown) [CRL 41 219, 1-(4-acetylamino-3-chlorophenyl)-2-pyrrolidinopropanone hydrochloride]",time taken for convulsions and death to occur following asphyxiant anoxia,mice [4],reduction in the time taken for convulsions and death to occur following asphyxiant anoxia
same,mydriasis,[5],mydriasis
same,"peripheral adrenergic stimulation, overall",[5],effects reflecting peripheral α-adrenergic stimulation
same,overall action on the CNS,CNS,"antidepressant, stimulant and arousing properties"
same,LD50,[1],~200 mg/kg
same,LD-30,male mice,~128 mg/kg
same,motor recovery after hypoxic aggression,mice [6],improvement in the motor recovery after hypoxic aggression
same,hypothermia induced by reserpine,mice [7],"antagonism of the hypothermia induced by apomorphine, reserpine"
same,ptosis induced by reserpine,mice [7],antagonism of the ptosis induced by reserpine
same,sleep induced by barbital,mice [8],antagonism of the sleep induced by barbital
same,hypothermia induced by oxotremorine,mice [9],"antagonism of the hypothermia induced by apomorphine, reserpine and oxotremorine"
same,trembling caused by oxotremorine,mice [9],antagonism of the trembling caused by oxotremorine
same,hypothermia induced by apomorphine,mice [10],antagonism of the hypothermia induced by apomorphine
same,spontaneous motility / motor activity,mice [11],"hyperactivity, increase in the spontaneous motor activity"
same,excitation in rats,rats [12],excitation (with hyperractivity)
same,stereotype movements in rats,rats [12],presence of stereotype movements
same,motor activity after habituation to the enclosure,mice [13],resumption in the motor activity after habituation to the enclosure
same,excitation in mice,mice [14],excitation with hyperreactivity
same,stereotype movements in mice,mice [14],late appearance of stereotypies
same,stereotypies induced by amphetamine,rats [15],potentiation of the stereotypies induced by apomorphine and amphetamine
same,lethal effects of electric shock,mice [16],aggravation of the lethal effects of electric shock
same,number of punished passes in the 4 plate test,mice [16]; mice,increase in the number of punished passes
same,"period of immobility or ""despair""",mice [17],reduction in the immobility
same,stereotypies induced by apomorphine,rats [18],potentiation of the stereotypies induced by apomorphine
